These results are taken from PubChem BioAssay AID504934 (The Scripps Research Institute Molecular Screening Center, 2011).

Common to all, as to assay: PubChem AID 504934
One test relates to pBIND-1. The settings on record: nuclear receptor panel Gal4 luciferase reporter, at 10 µM.
In the next test the test system is EAR-2 (COUP-TF3). The settings on record: nuclear receptor panel Gal4 luciferase reporter, at 10 µM.
The target in test [1] is Retinoic acid receptor alpha (Homo sapiens) (UniProt P10276). The note with it: nuclear receptor panel Gal4 luciferase reporter, RARa, at 10 µM. For orientation: A reporter such as luciferase makes a cellular process visible.
Another test relates to ERRa. The settings on record: nuclear receptor panel Gal4 luciferase reporter, at 10 µM.
The test system of the next test is THRb. The note with it: nuclear receptor panel Gal4 luciferase reporter, at 10 µM.
The next test concerns NOR1. The settings on record: nuclear receptor panel Gal4 luciferase reporter, at 10 µM.
Another test has as its system RORb. The note with it: nuclear receptor panel Gal4 luciferase reporter, at 10 µM.
The next test has as its system ERRb. The note with it: nuclear receptor panel Gal4 luciferase reporter, at 10 µM.
For test [2], the target named is Steroidogenic factor 1 (Homo sapiens) (UniProt Q13285). The note with it: nuclear receptor panel Gal4 luciferase reporter, SF1, at 10 µM.
Test [3] has as its target Hepatocyte nuclear factor 4-alpha (Homo sapiens) (UniProt P41235). The settings on record: nuclear receptor panel Gal4 luciferase reporter, HNF4a, at 10 µM.
Another test relates to Nur77. The note with it: nuclear receptor panel Gal4 luciferase reporter, at 10 µM.
For test [4], the target named is Peroxisome proliferator-activated receptor alpha (Homo sapiens) (UniProt Q07869). The note with it: nuclear receptor panel Gal4 luciferase reporter, PPARa, at 10 µM.
Another test deals with VDR. The settings on record: nuclear receptor panel Gal4 luciferase reporter, at 10 µM.
Test [5] concerns the target Nuclear receptor subfamily 0 group B member 1 (Homo sapiens) (UniProt P51843). The settings on record: nuclear receptor panel Gal4 luciferase reporter, DAX, at 10 µM.
In test [6] the target is Bile acid receptor (Homo sapiens) (UniProt Q96RI1). The settings on record: nuclear receptor panel Gal4 luciferase reporter, FXR, at 10 µM.
Another test concerns TLX. The settings on record: nuclear receptor panel Gal4 luciferase reporter, at 10 µM.
Test [7] addresses Estrogen receptor beta (Homo sapiens) (UniProt Q92731). The settings on record: nuclear receptor panel Gal4 luciferase reporter, Erb (ESR2), at 10 µM.
The subject of another test is THRa. The settings on record: nuclear receptor panel Gal4 luciferase reporter, at 10 µM.
For test [8], the target named is Oxysterols receptor LXR-beta (Homo sapiens) (UniProt P55055). The note with it: nuclear receptor panel Gal4 luciferase reporter, LXRb, at 10 µM.
For test [9], the target named is Nuclear receptor ROR-alpha (Homo sapiens) (UniProt P35398). The note with it: nuclear receptor panel Gal4 luciferase reporter, RORa, at 10 µM.
Test [10] concerns the target Retinoic acid receptor RXR-beta (Homo sapiens) (UniProt P28702). The note with it: nuclear receptor panel Gal4 luciferase reporter, RXRb, at 10 µM.
In a further test the test system is VP16 Control Plasmid. The note with it: nuclear receptor panel Gal4 luciferase reporter, at 10 µM.

Calls of active or inactive are those of the source. No rule for the calls is given here.

Chain of Hepatocyte nuclear factor 4-alpha (Homo sapiens) (P41235 whole entry, looked up, the tested form may be a part): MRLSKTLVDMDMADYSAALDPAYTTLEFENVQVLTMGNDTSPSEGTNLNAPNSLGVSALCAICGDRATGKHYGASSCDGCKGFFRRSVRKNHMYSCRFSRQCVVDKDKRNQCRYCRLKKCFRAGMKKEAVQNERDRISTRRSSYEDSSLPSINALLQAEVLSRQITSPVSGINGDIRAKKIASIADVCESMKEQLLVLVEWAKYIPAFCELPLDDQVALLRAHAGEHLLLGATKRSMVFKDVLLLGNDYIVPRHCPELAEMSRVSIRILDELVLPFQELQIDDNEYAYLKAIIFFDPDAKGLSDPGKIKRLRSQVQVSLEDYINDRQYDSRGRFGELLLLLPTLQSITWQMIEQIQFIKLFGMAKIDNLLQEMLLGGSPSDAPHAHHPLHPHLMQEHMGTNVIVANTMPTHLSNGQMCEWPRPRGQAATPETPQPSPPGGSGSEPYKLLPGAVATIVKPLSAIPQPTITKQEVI
Chain of Steroidogenic factor 1 (Homo sapiens) (Q13285 whole entry, looked up, the tested form may be a part): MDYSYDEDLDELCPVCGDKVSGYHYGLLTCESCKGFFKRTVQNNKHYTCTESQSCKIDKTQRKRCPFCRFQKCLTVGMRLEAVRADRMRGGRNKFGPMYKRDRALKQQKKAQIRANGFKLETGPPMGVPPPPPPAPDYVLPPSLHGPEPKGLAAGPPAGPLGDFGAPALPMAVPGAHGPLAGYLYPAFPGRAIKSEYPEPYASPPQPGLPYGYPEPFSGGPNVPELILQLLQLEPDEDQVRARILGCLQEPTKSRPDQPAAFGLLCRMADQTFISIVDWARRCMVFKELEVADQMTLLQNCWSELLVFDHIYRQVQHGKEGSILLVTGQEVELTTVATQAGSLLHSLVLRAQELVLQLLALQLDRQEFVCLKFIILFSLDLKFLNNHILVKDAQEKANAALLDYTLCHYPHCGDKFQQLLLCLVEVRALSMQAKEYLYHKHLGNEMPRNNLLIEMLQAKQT
Chain of Nuclear receptor subfamily 0 group B member 1 (Homo sapiens) (P51843 whole entry, looked up, the tested form may be a part): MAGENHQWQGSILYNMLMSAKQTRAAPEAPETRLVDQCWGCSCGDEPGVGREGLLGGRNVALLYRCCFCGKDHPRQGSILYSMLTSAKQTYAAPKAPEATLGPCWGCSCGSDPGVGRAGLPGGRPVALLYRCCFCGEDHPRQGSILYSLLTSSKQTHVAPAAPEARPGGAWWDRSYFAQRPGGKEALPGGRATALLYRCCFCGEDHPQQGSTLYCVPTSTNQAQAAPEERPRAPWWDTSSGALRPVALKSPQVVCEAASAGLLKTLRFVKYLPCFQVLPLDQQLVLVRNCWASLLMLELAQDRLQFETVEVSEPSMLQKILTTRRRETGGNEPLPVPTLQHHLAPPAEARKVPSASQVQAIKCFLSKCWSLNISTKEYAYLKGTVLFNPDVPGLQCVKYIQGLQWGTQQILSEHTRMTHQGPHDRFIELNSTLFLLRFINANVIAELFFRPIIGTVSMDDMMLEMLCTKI
Chain of Estrogen receptor beta (Homo sapiens) (Q92731 whole entry, looked up, the tested form may be a part): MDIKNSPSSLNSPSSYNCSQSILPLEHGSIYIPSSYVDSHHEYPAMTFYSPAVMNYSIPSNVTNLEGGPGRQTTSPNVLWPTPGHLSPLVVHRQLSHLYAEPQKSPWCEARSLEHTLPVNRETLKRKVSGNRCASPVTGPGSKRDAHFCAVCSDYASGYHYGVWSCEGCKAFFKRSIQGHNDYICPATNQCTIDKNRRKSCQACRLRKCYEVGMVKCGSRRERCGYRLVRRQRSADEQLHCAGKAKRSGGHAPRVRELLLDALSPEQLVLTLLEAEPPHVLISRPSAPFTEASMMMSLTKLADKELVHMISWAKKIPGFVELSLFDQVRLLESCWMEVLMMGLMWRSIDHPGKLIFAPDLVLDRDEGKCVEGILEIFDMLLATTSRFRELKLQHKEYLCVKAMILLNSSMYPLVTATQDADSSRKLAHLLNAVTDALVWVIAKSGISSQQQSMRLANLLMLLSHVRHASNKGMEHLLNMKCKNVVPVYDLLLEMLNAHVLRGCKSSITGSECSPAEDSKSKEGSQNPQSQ
Chain of Retinoic acid receptor alpha (Homo sapiens) (P10276 whole entry, looked up, the tested form may be a part): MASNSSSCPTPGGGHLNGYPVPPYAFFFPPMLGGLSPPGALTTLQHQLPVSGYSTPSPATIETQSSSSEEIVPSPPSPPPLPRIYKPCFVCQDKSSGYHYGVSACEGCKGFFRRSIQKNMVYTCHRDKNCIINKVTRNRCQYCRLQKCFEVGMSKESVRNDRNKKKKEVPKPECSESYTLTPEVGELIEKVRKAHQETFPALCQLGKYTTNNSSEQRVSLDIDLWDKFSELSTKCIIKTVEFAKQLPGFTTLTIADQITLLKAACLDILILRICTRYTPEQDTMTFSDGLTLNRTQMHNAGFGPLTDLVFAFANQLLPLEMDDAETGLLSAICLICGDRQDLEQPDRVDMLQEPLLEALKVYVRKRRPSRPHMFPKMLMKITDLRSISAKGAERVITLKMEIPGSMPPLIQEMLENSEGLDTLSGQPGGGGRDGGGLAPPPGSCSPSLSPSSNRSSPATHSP
Chain of Oxysterols receptor LXR-beta (Homo sapiens) (P55055 whole entry, looked up, the tested form may be a part): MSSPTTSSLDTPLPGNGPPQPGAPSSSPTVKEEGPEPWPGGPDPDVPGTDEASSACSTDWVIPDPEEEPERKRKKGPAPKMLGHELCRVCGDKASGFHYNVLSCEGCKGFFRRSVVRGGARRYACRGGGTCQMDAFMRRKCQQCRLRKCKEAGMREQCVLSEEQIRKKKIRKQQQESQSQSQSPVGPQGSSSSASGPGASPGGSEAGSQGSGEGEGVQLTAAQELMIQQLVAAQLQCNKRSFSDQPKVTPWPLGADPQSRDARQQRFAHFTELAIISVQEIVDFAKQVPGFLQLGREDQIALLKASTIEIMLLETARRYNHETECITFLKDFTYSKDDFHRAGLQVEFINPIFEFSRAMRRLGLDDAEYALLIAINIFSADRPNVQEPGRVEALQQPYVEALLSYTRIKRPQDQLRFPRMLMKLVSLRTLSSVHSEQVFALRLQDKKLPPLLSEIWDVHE
Chain of Retinoic acid receptor RXR-beta (Homo sapiens) (P28702 whole entry, looked up, the tested form may be a part): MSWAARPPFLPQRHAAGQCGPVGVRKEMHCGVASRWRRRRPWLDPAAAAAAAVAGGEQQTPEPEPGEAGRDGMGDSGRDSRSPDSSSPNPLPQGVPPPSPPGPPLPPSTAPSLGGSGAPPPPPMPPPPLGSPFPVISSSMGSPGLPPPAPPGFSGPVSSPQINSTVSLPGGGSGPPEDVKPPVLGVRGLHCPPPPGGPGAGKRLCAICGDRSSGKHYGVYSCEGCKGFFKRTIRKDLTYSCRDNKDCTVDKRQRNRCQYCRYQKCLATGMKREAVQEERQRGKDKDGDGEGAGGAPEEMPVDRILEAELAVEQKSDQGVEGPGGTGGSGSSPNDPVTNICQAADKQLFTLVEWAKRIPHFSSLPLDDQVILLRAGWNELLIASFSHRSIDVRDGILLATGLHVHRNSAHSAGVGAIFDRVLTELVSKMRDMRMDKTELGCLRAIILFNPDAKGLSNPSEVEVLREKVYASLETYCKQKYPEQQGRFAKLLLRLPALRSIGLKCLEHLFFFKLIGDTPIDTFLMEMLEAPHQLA
Chain of Bile acid receptor (Homo sapiens) (Q96RI1 whole entry, looked up, the tested form may be a part): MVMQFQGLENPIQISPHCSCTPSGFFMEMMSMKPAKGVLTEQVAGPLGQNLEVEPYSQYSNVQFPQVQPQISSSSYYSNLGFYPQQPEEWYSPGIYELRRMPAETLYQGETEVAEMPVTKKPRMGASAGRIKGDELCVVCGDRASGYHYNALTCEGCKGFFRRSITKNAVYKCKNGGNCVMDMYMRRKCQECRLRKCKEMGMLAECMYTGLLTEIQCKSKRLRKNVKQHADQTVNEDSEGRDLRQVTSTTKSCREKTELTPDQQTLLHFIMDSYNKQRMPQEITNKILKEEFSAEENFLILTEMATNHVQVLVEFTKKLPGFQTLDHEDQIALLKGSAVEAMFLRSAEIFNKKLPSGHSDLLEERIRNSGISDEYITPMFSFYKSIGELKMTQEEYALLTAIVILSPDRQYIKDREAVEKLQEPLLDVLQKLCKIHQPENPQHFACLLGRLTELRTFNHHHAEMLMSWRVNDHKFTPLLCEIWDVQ
Chain of Peroxisome proliferator-activated receptor alpha (Homo sapiens) (Q07869 whole entry, looked up, the tested form may be a part): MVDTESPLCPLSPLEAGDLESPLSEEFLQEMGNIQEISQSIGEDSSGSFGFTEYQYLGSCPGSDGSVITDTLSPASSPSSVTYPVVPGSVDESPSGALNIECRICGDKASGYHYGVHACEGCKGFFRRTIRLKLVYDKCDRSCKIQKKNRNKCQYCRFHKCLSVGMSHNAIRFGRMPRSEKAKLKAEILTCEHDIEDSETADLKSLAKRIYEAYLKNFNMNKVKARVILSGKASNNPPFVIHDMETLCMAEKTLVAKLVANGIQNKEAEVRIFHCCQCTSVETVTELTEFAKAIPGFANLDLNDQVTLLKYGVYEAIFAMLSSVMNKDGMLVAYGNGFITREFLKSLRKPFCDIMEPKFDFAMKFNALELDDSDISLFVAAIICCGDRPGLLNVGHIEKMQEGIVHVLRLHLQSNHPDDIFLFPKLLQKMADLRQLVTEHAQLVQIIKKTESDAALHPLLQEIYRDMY
Chain of Nuclear receptor ROR-alpha (Homo sapiens) (P35398 whole entry, looked up, the tested form may be a part): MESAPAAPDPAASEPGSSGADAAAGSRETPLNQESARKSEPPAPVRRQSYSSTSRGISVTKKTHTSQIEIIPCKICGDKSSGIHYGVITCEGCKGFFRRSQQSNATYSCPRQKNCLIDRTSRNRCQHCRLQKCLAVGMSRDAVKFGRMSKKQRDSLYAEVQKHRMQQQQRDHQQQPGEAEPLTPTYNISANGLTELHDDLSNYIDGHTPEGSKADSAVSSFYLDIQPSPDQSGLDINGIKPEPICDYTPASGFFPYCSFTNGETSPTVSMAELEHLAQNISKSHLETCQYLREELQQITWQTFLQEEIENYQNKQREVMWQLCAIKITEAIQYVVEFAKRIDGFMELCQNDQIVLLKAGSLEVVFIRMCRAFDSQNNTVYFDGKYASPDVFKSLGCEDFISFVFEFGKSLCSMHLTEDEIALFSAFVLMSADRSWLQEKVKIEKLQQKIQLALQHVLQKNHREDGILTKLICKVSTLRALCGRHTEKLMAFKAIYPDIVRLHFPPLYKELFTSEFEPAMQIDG

As to `O=c1cc(N2CCN(c3cccc(Cl)c3)CC2)[nH]c(=O)n1C1CCCCC1`, the fold change in the test with pBIND-1 is 1.28; with EAR-2 (COUP-TF3) it was 1 (inactive); in test [1], 0.47; in the test on ERRa, 1.34; in the test on THRb it was 1.06 (inactive); with NOR1 it was 0.87 (inactive). In addition, the fold change in the test with RORb is 0.82 (inactive); in the test with ERRb it was 1.02 (inactive); in test [2] it was 0.71; in [3], 0.61; with Nur77, 0.72; in [4] it was 1.11 (inactive). In addition, the fold change in the test on VDR was 0.83 (inactive); in test [5] it was 1.03 (inactive); in test [6] it was 2.52; in the test on TLX it was 0.88 (inactive); in test [7], 0.56; with THRa, 1.69. Moreover, the fold change in test [8] is 1.9 (inactive); in [9], 1 (inactive); in test [10], 0.78; in the test on VP16 Control Plasmid it was 0.82 (inactive).
